According to patent publication US12427179B2, “Compositions and methods for diagnosis and treatment of neurodegenerative diseases” (EPITRACKER, INC., priority 2019, dated 2025):

Legend:
[1] = test system: BT: Peripheral blood mononuclear cells, B cells (α-IgM, TCR ligands); experiment: BioMAP BT system; format: cell-based, human
Protocol: (§1) Anti-inflammatory phenotypic profiling was conducted across 12 human primary cell-based systems as part of DiscoverX's BioMAP Diversity Plus program. These systems are designed to model complex human tissue and disease biology of the vasculature, skin, lung, and inflammatory tissues. Quantitative measurements of biomarker activities across this broad panel were used to assess each biochemical's anti-inflammatory activity at four concentrations ([…] and 2.2, 6.7 and 20 μM). […] Protein-based biomarkers from activated cell systems were measured and compared with controls. Biomarker activities were annotated when 2 or more consecutive concentrations change in the same directions relative to vehicle controls, were outside of the significance envelope and had at least one concentration with an effect size>20% (log 10 ratio)>0.1.
(§2) In the first system, human primary peripheral blood mononuclear cells and venular endothelial cells were stimulated with lipopolysaccharide (LPS) and incubated with the test agent, drug control, or vehicle control for 24 hours. In the second system, peripheral blood mononuclear cells and B cells were stimulated with α-IgM and T cell receptor ligands and incubated with the test agent, drug control, or vehicle control for 24 hours. In both systems, a negative, non-stimulated system was also included.
(§3) The Diversity PLUS panel allows test agent characterization in an unbiased way across a broad set of systems modeling various human disease states. These systems are designed to model complex human tissue and disease biology of the vasculature, skin, lung, and inflammatory tissues. Quantitative measurements of 148 biomarker activities across this broad panel, along with comparative analysis of biological activities from known bioactive agents, were used to predict and compare the efficacy and function of each selected compound at selected concentrations (6.7 and/or 20 μM).
(§4) BioMAP systems are constructed with one or more primary cell types from healthy human donors, with stimuli (such as cytokines or growth factors) added to capture relevant signaling networks that naturally occur in human tissue or pathological conditions. Vascular biology is modeled in both a Th1 (3C system) and a Th2 (4H system) inflammatory environment, as well as in a Th1 inflammatory state specific to arterial smooth muscle cells (CASM3C system). Additional systems recapitulate aspects of the systemic immune response including monocyte-driven Th1 inflammation (LPS system) or T cell stimulation (SAg system), chronic Th1 inflammation driven by macrophage activation (lMphg system) and the T cell-dependent activation of B cells that occurs in germinal centers (BT system). The BE3C system (Th1) and the BF4T system (Th2) represent airway inflammation of the lung, while the MyoF system models myofibroblast-lung tissue remodeling. Lastly, skin biology is addressed in the KF3CT system modeling Th1 cutaneous inflammation and the HDF3CGF system modeling wound healing.
(§5) Each test agent generates a signature BioMAP profile that is created from the changes in protein biomarker readouts within individual system environments. Biomarker readouts (7-17 per system) are selected for therapeutic and biological relevance, are predictive for disease outcomes or specific drug effects and are validated using agents with known mechanism of action (MoA). Each readout is measured quantitatively by immune-based methods that detect protein (e.g., ELISA) or functional assays that measure proliferation and viability. BioMAP readouts are diverse and include cell surface receptors, cytokines, chemokines, matrix molecules and enzymes. In total, the Diversity PLUS panel contains 148 biomarker readouts that capture biological changes that occur within the physiological context of the particular BioMAP system. […]

[2] = test system: SAg: Venular endothelial cells, peripheral blood mononuclear cells (TCR ligands); experiment: BioMAP SAg system; format: cell-based, human; conditions: SAg system; at the compound's active concentration
Protocol: as §1
In this system, human primary peripheral blood mononuclear cells and human umbilical vein endothelial cells were stimulated with T-cell receptor ligands and incubated with the test agent, drug control, or vehicle control for 24 hours. A negative, non-stimulated system was also included. […] This antiproliferative activity was lost at higher concentrations (20 μM). In this system, T cell proliferation is considered a critical event driving an inflammatory response.
as §3, with “μM). […]” for “μM).”
as §5

[3] = test system: 4H: Venular endothelial cells (IL-4, histamine); experiment: BioMAP 4H system; format: cell-based, human; conditions: at the compound's active concentration
Text: as §3
BioMAP systems are constructed with one or more primary cell types from healthy human donors, with stimuli (such as cytokines or growth factors) added to capture relevant signaling networks that naturally occur in human tissue or pathological conditions. Vascular biology is modeled in both a Th1 (3C system) and a Th2 (4H system) inflammatory environment, as well as in a Th1 inflammatory state specific to arterial smooth muscle cells (CASM3C system). […]
as §5
(§6) Activated BioMAP systems were incubated with each compound for 24 to 72 hours. Protein-based biomarkers from activated cell systems were measured and compared with non-treated control systems.

[4] = test system: human primary cell-based systems; experiment: BioMAP Diversity PLUS panel, phenotypic profiling; conditions: tested at 6.7 and/or 20 μM; 24 to 72 hours
Protocol: as §1, with “controls.” for “controls. Biomarker activities were annotated when 2 or more consecutive concentrations change in the same directions relative to vehicle controls, were outside of the significance envelope and had at least one concentration with an effect size>20% (log 10 ratio)>0.1.”
as §3, §4
(§7) Each test agent generates a signature BioMAP profile that is created from the changes in protein biomarker readouts within individual system environments. Biomarker readouts (7-17 per system) are selected for therapeutic and biological relevance, are predictive for disease outcomes or specific drug effects and are validated using agents with known mechanism of action (MoA). Each readout is measured quantitatively by immune-based methods that detect protein (e.g., ELISA) or functional assays that measure proliferation and viability. BioMAP readouts are diverse and include cell surface receptors, cytokines, chemokines, matrix molecules and enzymes. In total, the Diversity PLUS panel contains 148 biomarker readouts that capture biological changes that occur within the physiological context of the particular BioMAP system.
as §6

[5] = test system: HDF3CGF: Dermal fibroblasts; experiment: BioMAP HDF3CGF system; format: cell-based, human; conditions: at the compound's active concentration
Text: as §3, §4
as §7, with “system. Specific BioMAP activities have been correlated to in vivo biology, and multiparameter BioMAP profiles have been used to distinguish compounds based on MoA and target selectivity across diverse physiological systems.” for “system.”
as §6

[6] = test system: BE3C: Bronchial epithelial cells (IL-1β, IFNγ, TNFα); experiment: BioMAP BE3C system; format: cell-based, human; conditions: at the compound's active concentration
Text: (§8) The Diversity PLUS panel allows test agent characterization in an unbiased way across a broad set of systems modeling various human disease states. These systems are designed to model complex human tissue and disease biology of the vasculature, skin, lung, and inflammatory tissues.
as §4
as §7, with “enzymes.” for “enzymes. In total, the Diversity PLUS panel contains 148 biomarker readouts that capture biological changes that occur within the physiological context of the particular BioMAP system.”
as §6

[7] = test system: LPS: Venular endothelial cells, peripheral blood mononuclear cells (TLR4 ligand); experiment: BioMAP LPS system; format: cell-based, human
Protocol: as §1, §2, §3, §4, §5

[8] = test system: CASM3C: Coronary artery smooth muscle cells (IL-1β, TNFα, IFNγ); experiment: BioMAP CASM3C system; format: cell-based, human; conditions: at the compound's active concentration
Text: as §8, §4
as §7, with “enzymes.” for “enzymes. In total, the Diversity PLUS panel contains 148 biomarker readouts that capture biological changes that occur within the physiological context of the particular BioMAP system.”
as §6

[9] = test system: /Mphg: Macrophages, venular endothelial cells (TLR2 ligand); experiment: BioMAP /Mphg system; format: cell-based, human; conditions: at the compound's active concentration
Text: as §3, §4, §5, §6

[10] = test system: 3C system (Th1 vascular biology); experiment: BioMAP 3C system; format: cell-based, human; conditions: at the compound's active concentration
Text: as §5, with “The Diversity PLUS panel allows test agent characterization in an unbiased way across a broad set of systems modeling various human disease states. These systems are designed to model complex human tissue and disease biology of the vasculature, skin, lung, and inflammatory tissues. […] BioMAP systems are constructed with one or more primary cell types from healthy human donors, with stimuli (such as cytokines or growth factors) added to capture relevant signaling networks that naturally occur in human tissue or pathological conditions. […] Each test” for “Each test”

[11] = BT system, at the compound's active concentration
[12] = at the compound's active concentration

In the case of `N=C(N)NCCCC(=O)O` [4-guanidinobutanoate], the “Secreted IgG, log10 reduction vs nontreated controls” value [1, 11] is reported as −0.49 log10, the “TNF-alpha (sTNF-alpha), log10 reduction vs nontreated controls” value (shortened to “TNF-alpha (sTNF-alpha), log10 reduction”) [1, 11] is reported as −0.10 log10 and the “sIL-17A, log10 reduction vs nontreated controls” value [1, 11] is reported as −0.17 log10. For the same molecule, the “CD38, log10 reduction vs nontreated controls” value [2] was −0.10 log10, the “T cell proliferation, log10 reduction vs nontreated controls” value [2] was −0.13 log10 and the “MCP-1, log10 reduction vs nontreated controls” value [3] was −0.12 log10. For the same molecule, the Active concentrations [4] was 6.7 to 20 µM, the “CXCL10, log10 reduction vs nontreated controls” value [5] was −0.11 log10 and the “CXCL11, log10 reduction vs nontreated controls” value [5] was −0.19 log10. For the same molecule, the “Collagen III, log10 reduction vs nontreated controls” value [5] was −0.30 log10, the “Fibroblast proliferation, log10 reduction vs nontreated controls” value [5] was −1.09 log10 and the “TIMP-1, log10 reduction vs nontreated controls” value [5] was −0.14 log10. For the same molecule, the “VCAM-1, log10 reduction vs nontreated controls” value [5] was −0.19 log10.
For `CC(=O)N[C@H](C(=O)O)[C@@H](C)O` [N-acetylthreonine], the “Secreted IgG, log10 reduction vs nontreated controls” value [1, 11] was −0.41 log10, the “VEGFR2, log10 reduction vs nontreated controls” value [3] was −0.16 log10 and the Active concentrations [4] was 20 µM.
For `C[C@H](CCC(=O)O)[C@H]1CC[C@H]2[C@@H]3[C@H](O)C[C@@H]4C[C@H](O)CC[C@]4(C)[C@H]3C[C@H](O)[C@]12C` [cholate], the “MMP-1, log10 reduction vs nontreated controls” value (shortened to “MMP-1, log10 reduction”) [6] was −0.10 log10, the “Tissue factor, log10 reduction vs nontreated controls” value (from here on “Tissue factor, log10 reduction”) [7, 12] was −0.13 log10 and the Active concentrations [4] was 20 µM. The “Thrombomodulin, log10 reduction vs nontreated controls” value (“Thrombomodulin, log10 reduction” for short) ([8]; CASM3C system) was −0.12 log10.
`N[C@@H](CCC(=O)N[C@@H](Cc1c[nH]cn1)C(=O)O)C(=O)O` [gamma-glutamylhistidine] was tested, and the “MMP-1, log10 reduction” value [6] was −0.10 log10, the “TNF-alpha (sTNF-alpha), log10 reduction” value [1, 11] was −0.18 log10 and the “CD40, log10 reduction vs nontreated controls” value [7, 12] was −0.11 log10. For the same molecule, the “E-selectin, log10 reduction vs nontreated controls” value [7, 12] was −0.11 log10, the “IL-8, log10 reduction vs nontreated controls” value (from here on “IL-8, log10 reduction”) [9] was −0.15 log10 and the “Tissue factor, log10 reduction” value [10] was −0.12 log10. For the same molecule, the Active concentrations [4] was 20 µM and the “Thrombomodulin, log10 reduction” value ([8]; CASM3C system) was −0.12 log10.
With `O[C@H]1[C@H](O)[C@@H](O)[C@H](O)[C@@H](O)[C@H]1O` [myo-inositol] the “MMP-1, log10 reduction” value [6] was −0.12 log10, the Active concentrations [4] was 6.7 µM and the “M-CSF, log10 reduction vs nontreated controls” value ([8]; CASM3C system) was −0.10 log10.
In the case of `COc1cc(C(O)C(=O)O)ccc1O` (centres unmarked) [vanillylmandelate (VMA), vanillylmandelate], the “IL-8, log10 reduction” value [9] is reported as −0.18 log10.
For `O=c1[nH]c(=O)c2ncn([C@@H]3O[C@H](CO)[C@@H](O)[C@H]3O)c2[nH]1` [xanthosine], the “CD40, log10 reduction vs nontreated controls” value [7, 12] was −0.12 log10, the “Tissue factor, log10 reduction” value [7, 12] was −0.13 log10 and the “IL-8, log10 reduction” value [9] was −0.13 log10. For the same molecule, the Active concentrations [4] was 6.7 to 20 µM, the “Tissue factor, log10 reduction” value ([8]; CASM3C system (system cell not printed on the line)) was −0.13 log10 and the “Thrombomodulin, log10 reduction” value ([8]; CASM3C system) was −0.11 log10.
For `O=C(O)c1cc(O)c2cccc(O)c2n1` [xanthurenate], the “Secreted interleukin 6 (IL-6), log10 reduction vs controls” value ([1]; BT system (second system)) was −0.13 log10, the “TNF-alpha (sTNF-alpha), log10 reduction” value [1, 11] was −0.19 log10 and the “Secreted prostaglandin E2 (PGE2), log10 reduction vs nontreated controls” value ([7]; 20 μM) was −0.09 log10.
